Source: the NIST ThermoML archive (doi:10.1021/acs.jced.8b00157)

Experiment: an = ratio of the nth substance listed
Details: 100 kPa, Liquid, Buoyancy - hydrostatic balance

[F][Al]([F])[F] [aluminum fluoride] + [F-].[K+]
mass density [kg/m3]
Details | a2 = 1.3 | a2 = 1.5
1068.5 K | 1772 | –
1068.7 K | – | 1790
1069.1 K | – | 1790
1069.3 K | 1772 | –
1069.4 K | 1771 | –
1069.6 K | 1771 | 1790
1069.9 K | – | 1789
1070.1 K | 1771 | –
1070.2 K | – | 1789
1070.5 K | 1771 | –
1070.7 K | – | 1788
1071.1 K | – | 1788
1071.2 K | 1770 | –
1071.3 K | 1770 | –
1071.4 K | – | 1788
1071.9 K | 1769 | 1787
1072 K | 1769 | –
1072.3 K | – | 1787
1072.6 K | 1768 | –
1072.7 K | 1768 | 1787
1073 K | – | 1787
1073.4 K | 1768 | 1787
1073.7 K | – | 1786
1073.8 K | 1767 | –
1073.9 K | 1767 | –
1074.1 K | – | 1786
1074.5 K | – | 1786
1074.7 K | 1766 | –
1074.9 K | – | 1786
1075.2 K | – | 1785
1075.3 K | 1766 | –
1075.4 K | – | 1785
1075.5 K | 1766 | –
1075.6 K | – | 1784
1076 K | 1765 | –
1076.2 K | – | 1784
1076.4 K | 1765 | –
1076.5 K | 1765 | –
1076.6 K | – | 1784
1076.7 K | 1765 | –
1077 K | – | 1784
1077.3 K | – | 1783
1077.4 K | 1763 | –
1077.7 K | – | 1783
1078.1 K | – | 1783
1078.2 K | 1762 | –
1078.3 K | 1762 | 1782
1078.4 K | 1761 | –
1078.7 K | – | 1782
1079.1 K | 1761 | 1782
1079.4 K | – | 1782
1079.5 K | 1760 | –
1079.7 K | 1760 | 1781
1080.2 K | – | 1781
1080.5 K | – | 1780
1080.7 K | 1760 | –
1080.8 K | 1759 | –
1081 K | – | 1780
1081.2 K | 1759 | –
1081.3 K | – | 1780
1081.4 K | 1759 | –
1081.6 K | 1758 | –
1081.7 K | 1757 | –
1081.8 K | – | 1780
1082.1 K | – | 1779
1082.4 K | 1758 | –
1082.5 K | – | 1779
1082.7 K | 1757 | –
1082.8 K | 1757 | 1779
1083.2 K | – | 1779
1083.6 K | – | 1778
1083.9 K | 1756 | 1778
1084.1 K | 1756 | –
1084.3 K | – | 1778
1084.4 K | 1756 | –
1084.8 K | – | 1778
1084.9 K | 1756 | –
1085.1 K | – | 1777
1085.4 K | 1755 | –
1085.5 K | – | 1777
1085.6 K | 1755 | –
1085.9 K | – | 1776
1086.2 K | 1754 | –
1086.4 K | 1754 | 1776
1086.6 K | – | 1776
1086.9 K | 1754 | –
1087 K | 1754 | –
1087.1 K | – | 1776
1087.6 K | – | 1775
1087.7 K | 1753 | –
1088 K | 1753 | 1775
1088.2 K | 1753 | –
1088.3 K | 1752 | –
1088.4 K | – | 1775
1088.8 K | 1752 | 1775
1089.2 K | – | 1774
1089.3 K | 1751 | –
1089.6 K | – | 1774
1089.7 K | 1751 | –
1089.9 K | – | 1774
1090.4 K | 1751 | 1774
1090.5 K | 1751 | –
1090.7 K | – | 1773
1091 K | 1750 | –
1091.1 K | – | 1773
1091.2 K | 1750 | –
1091.6 K | – | 1772
1091.7 K | 1750 | –
1092 K | – | 1772
1092.2 K | 1749 | –
1092.3 K | 1749 | 1772
1092.5 K | 1748 | –
1092.6 K | 1748 | –
1092.7 K | – | 1772
1093.2 K | – | 1771
1093.5 K | 1747 | 1771
1093.8 K | 1748 | –
1093.9 K | – | 1771
1094.2 K | 1747 | –
1094.3 K | – | 1771
1094.7 K | – | 1770
1094.8 K | 1747 | –
1094.9 K | 1747 | –
1095 K | 1746 | –
1095.1 K | – | 1770
1095.3 K | 1746 | –
1095.5 K | 1745 | 1770
1095.8 K | – | 1769
1096.1 K | 1745 | –
1096.2 K | 1745 | –
1096.3 K | – | 1769
1096.4 K | 1744 | –
1096.6 K | – | 1769
1096.7 K | 1744 | –
1097 K | – | 1769
1097.1 K | 1744 | –
1097.2 K | 1744 | –
1097.4 K | – | 1768
1097.6 K | 1744 | –
1097.9 K | – | 1768
1098.1 K | 1743 | 1767
1098.3 K | 1743 | –
1098.5 K | – | 1767
1098.6 K | 1743 | –
1098.8 K | 1742 | –
1098.9 K | 1742 | –
1099 K | – | 1767
1099.4 K | – | 1767
1099.5 K | 1742 | –
1099.6 K | 1742 | –
1099.8 K | – | 1766
1100.1 K | 1741 | –
1100.2 K | – | 1766
1100.4 K | 1741 | –
1100.6 K | 1741 | 1766
1100.9 K | 1740 | 1766
1101 K | 1741 | –
1101.2 K | 1740 | 1765
1101.7 K | 1740 | 1765
1101.8 K | 1739 | –
1101.9 K | 1739 | –
1102.1 K | – | 1765
1102.4 K | – | 1765
1102.5 K | 1739 | –
1102.9 K | – | 1764
1103.4 K | – | 1764
1103.6 K | – | 1763
1104.1 K | – | 1763
1104.5 K | – | 1763
1104.8 K | – | 1763
1105.2 K | – | 1762
1105.7 K | – | 1762
1105.9 K | – | 1762
1106.4 K | – | 1762
1106.7 K | – | 1761
1107.3 K | – | 1761
1107.7 K | – | 1761
1108 K | – | 1761
1108.5 K | – | 1760
1108.8 K | – | 1760
1109.3 K | – | 1759
1109.7 K | – | 1759
1110.1 K | – | 1759
1110.5 K | – | 1759
1111 K | – | 1758
1111.3 K | – | 1758
1111.7 K | – | 1758
1112.1 K | – | 1757
1112.6 K | – | 1757
1112.9 K | – | 1757
1113.2 K | – | 1757
1113.7 K | – | 1756
1114.2 K | – | 1756
1114.6 K | – | 1755
1114.9 K | – | 1755
1115.3 K | – | 1755
1115.7 K | – | 1754
1116.1 K | – | 1754
1116.5 K | – | 1754
1117 K | – | 1754
1117.4 K | – | 1753
1117.8 K | – | 1753
1118.3 K | – | 1753
1118.7 K | – | 1752
1119.2 K | – | 1752
1119.4 K | – | 1751
1119.9 K | – | 1751
1120.3 K | – | 1751
1120.6 K | – | 1751
1121.2 K | – | 1750
1121.5 K | – | 1750
1122 K | – | 1750
1122.4 K | – | 1750
1122.8 K | – | 1749
1123.3 K | – | 1749
